Source: patent US20230157952A1, “METHOD FOR IMPROVING THE STABILITY OF A PHARMACEUTICAL COMPOSITION COMPRISING A HIGH PENETRATION DRUG, AND THE PHARMACEUTICAL COMPOSITION OBTAINED THEREFROM” (Techfields Inc., priority 2020, published 2023)

Experiment: Effect of temperature (and pH) on the stability of the solution (purity)
Type: physicochemical

Structure (SMILES): CCN(CC)CCOC(=O)c1cc(-c2ccc(F)cc2F)ccc1OC(C)=O.Cl
- Purity(%) at day 0 (7% solution in water, pH 1.0, day 0): 99.1%
- Purity(%) at day 14 (5° C.) (7% solution in water, pH 1.0, day 14, 5° C.): 90.2%
- Purity(%) at day 14 (25° C.) (7% solution in water, pH 1.0, day 14, 25° C.): 61.2%
- Purity(%) at day 14 (40° C.) (7% solution in water, pH 1.0, day 14, 40° C.): 0%
- Purity (%) at day 14 (60° C.) (7% solution in water, pH 1.0, day 14, 60° C.): 0%
- Purity(%) at day 0 (7% solution in water, pH 2.0, day 0): 99.1%
- Purity(%) at day 14 (5° C.) (7% solution in water, pH 2.0, day 14, 5° C.): 95.8%
- Purity(%) at day 14 (25° C.) (7% solution in water, pH 2.0, day 14, 25° C.): 82.7%
- Purity(%) at day 14 (40° C.) (7% solution in water, pH 2.0, day 14, 40° C.): 0%
- Purity (%) at day 14 (60° C.) (7% solution in water, pH 2.0, day 14, 60° C.): 0%
- Purity(%) at day 0 (7% solution in water, pH 3.0, day 0): 99.1%
- Purity(%) at day 14 (5° C.) (7% solution in water, pH 3.0, day 14, 5° C.): 97.5%
- Purity(%) at day 14 (25° C.) (7% solution in water, pH 3.0, day 14, 25° C.): 87.7%
- Purity(%) at day 14 (40° C.) (7% solution in water, pH 3.0, day 14, 40° C.): 2.3%
- Purity (%) at day 14 (60° C.) (7% solution in water, pH 3.0, day 14, 60° C.): 0%
- Purity(%) at day 0 (7% solution in water, pH 3.7, day 0): 99.1%
- Purity(%) at day 14 (5° C.) (7% solution in water, pH 3.7, day 14, 5° C.): 98.2%
- Purity(%) at day 14 (25° C.) (7% solution in water, pH 3.7, day 14, 25° C.): 95.5%
- Purity(%) at day 14 (40° C.) (7% solution in water, pH 3.7, day 14, 40° C.): 14.1%
- Purity (%) at day 14 (60° C.) (7% solution in water, pH 3.7, day 14, 60° C.): 0%
- Purity(%) at day 0 (7% solution in water, pH 4.0, day 0): 99.1%
- Purity(%) at day 14 (5° C.) (7% solution in water, pH 4.0, day 14, 5° C.): 98.4%
- Purity(%) at day 14 (25° C.) (7% solution in water, pH 4.0, day 14, 25° C.): 95.9%
- Purity(%) at day 14 (40° C.) (7% solution in water, pH 4.0, day 14, 40° C.): 14.3%
- Purity (%) at day 14 (60° C.) (7% solution in water, pH 4.0, day 14, 60° C.): 0%
- Purity(%) at day 0 (7% solution in water, pH 4.3, day 0): 99.1%
- Purity(%) at day 14 (5° C.) (7% solution in water, pH 4.3, day 14, 5° C.): 98.4%
- Purity(%) at day 14 (25° C.) (7% solution in water, pH 4.3, day 14, 25° C.): 95.8%
- Purity(%) at day 14 (40° C.) (7% solution in water, pH 4.3, day 14, 40° C.): 12.8%
- Purity (%) at day 14 (60° C.) (7% solution in water, pH 4.3, day 14, 60° C.): 0%
- Purity(%) at day 0 (7% solution in water, pH 4.6, day 0): 99.1%
- Purity(%) at day 14 (5° C.) (7% solution in water, pH 4.6, day 14, 5° C.): 98.3%
- Purity(%) at day 14 (25° C.) (7% solution in water, pH 4.6, day 14, 25° C.): 95.6%
- Purity(%) at day 14 (40° C.) (7% solution in water, pH 4.6, day 14, 40° C.): 3.4%
- Purity (%) at day 14 (60° C.) (7% solution in water, pH 4.6, day 14, 60° C.): 0%
- Purity(%) at day 0 (7% solution in water, pH 5.0, day 0): 99.1%
- Purity(%) at day 14 (5° C.) (7% solution in water, pH 5.0, day 14, 5° C.): 97.0%
- Purity(%) at day 14 (25° C.) (7% solution in water, pH 5.0, day 14, 25° C.): 91.0%
- Purity(%) at day 14 (40° C.) (7% solution in water, pH 5.0, day 14, 40° C.): 0.9%
- Purity (%) at day 14 (60° C.) (7% solution in water, pH 5.0, day 14, 60° C.): 0%
- Purity(%) at day 0 (7% solution in water, pH 6.0, day 0): 99.1%
- Purity(%) at day 14 (5° C.) (7% solution in water, pH 6.0, day 14, 5° C.): 91.6%
- Purity(%) at day 14 (25° C.) (7% solution in water, pH 6.0, day 14, 25° C.): 84.1%
- Purity(%) at day 14 (40° C.) (7% solution in water, pH 6.0, day 14, 40° C.): 0%
- Purity (%) at day 14 (60° C.) (7% solution in water, pH 6.0, day 14, 60° C.): 0%
- Purity(%) at day 0 (7% solution in water, pH 7.0, day 0): 99.1%
- Purity(%) at day 14 (5° C.) (7% solution in water, pH 7.0, day 14, 5° C.): 87.3%
- Purity(%) at day 14 (25° C.) (7% solution in water, pH 7.0, day 14, 25° C.): 60.3%
- Purity(%) at day 14 (40° C.) (7% solution in water, pH 7.0, day 14, 40° C.): 0%
- Purity (%) at day 14 (60° C.) (7% solution in water, pH 7.0, day 14, 60° C.): 0%
- Purity(%) at day 0 (7% solution in water, pH 8.0, day 0): 99.1%
- Purity(%) at day 14 (5° C.) (7% solution in water, pH 8.0, day 14, 5° C.): 57.3%
- Purity(%) at day 14 (25° C.) (7% solution in water, pH 8.0, day 14, 25° C.): 21.2%
- Purity(%) at day 14 (40° C.) (7% solution in water, pH 8.0, day 14, 40° C.): 0%
- Purity (%) at day 14 (60° C.) (7% solution in water, pH 8.0, day 14, 60° C.): 0%

Structure (SMILES): CCN(CC)CCOC(=O)[C@H](C)c1ccc(CC(C)C)cc1.Cl
- Purity (%) at day 21 (60° C.) (pH 1.02, 7% solution in water): 0%
- Purity(%) at day 21 (5° C.) (pH 1.02, 7% solution in water): 93.1 ± 0.3%
- Purity(%) at day 21 (25° C.) (pH 1.02, 7% solution in water): 70.7 ± 0.4%
- Purity(%) at day 21 (40° C.) (pH 1.02, 7% solution in water): 18.5 ± 0.3%
- Purity (%) at day 21 (60° C.) (pH 2.09, 7% solution in water): 0%
- Purity(%) at day 21 (5° C.) (pH 2.09, 7% solution in water): 97.0 ± 0.4%
- Purity(%) at day 21 (25° C.) (pH 2.09, 7% solution in water): 86.0 ± 0.4%
- Purity(%) at day 21 (40° C.) (pH 2.09, 7% solution in water): 30.6 ± 0.4%
- Purity (%) at day 21 (60° C.) (pH 3.01, 7% solution in water): 8.4 ± 0.3%
- Purity(%) at day 21 (25° C.) (pH 3.01, 7% solution in water): 96.1 ± 0.3%
- Purity(%) at day 21 (40° C.) (pH 3.01, 7% solution in water): 56.1 ± 0.4%
- Purity (%) at day 21 (60° C.) (pH 3.68, 7% solution in water): 16.0 ± 0.4%
- Purity(%) at day 21 (40° C.) (pH 3.68, 7% solution in water): 64.1 ± 0.5%
- Purity (%) at day 21 (60° C.) (pH 4.07, 7% solution in water): 22.7 ± 0.4%
- Purity(%) at day 21 (40° C.) (pH 4.07, 7% solution in water): 72.6 ± 0.4%
- Purity (%) at day 21 (60° C.) (pH 4.35, 7% solution in water): 18.3 ± 0.3%
- Purity(%) at day 21 (40° C.) (pH 4.35, 7% solution in water): 72.6 ± 0.5%
- Purity (%) at day 21 (60° C.) (pH 4.67, 7% solution in water): 10.4 ± 0.5%
- Purity(%) at day 21 (25° C.) (pH 4.67, 7% solution in water): 97.5 ± 0.4%
- Purity(%) at day 21 (40° C.) (pH 4.67, 7% solution in water): 58.3 ± 0.4%
- Purity (%) at day 21 (60° C.) (pH 4.96, 7% solution in water): 4.0 ± 0.3%
- Purity(%) at day 21 (5° C.) (pH 4.96, 7% solution in water): 97.0 ± 0.4%
- Purity(%) at day 21 (25° C.) (pH 4.96, 7% solution in water): 95.1 ± 0.4%
- Purity(%) at day 21 (40° C.) (pH 4.96, 7% solution in water): 50.5 ± 0.5%
- Purity (%) at day 21 (60° C.) (pH 5.98, 7% solution in water): 0%
- Purity(%) at day 21 (5° C.) (pH 5.98, 7% solution in water): 95.8 ± 0.4%
- Purity(%) at day 21 (25° C.) (pH 5.98, 7% solution in water): 90.2 ± 0.4%
- Purity(%) at day 21 (40° C.) (pH 5.98, 7% solution in water): 29.9 ± 0.4%
- Purity (%) at day 21 (60° C.) (pH 6.99, 7% solution in water): 0%
- Purity(%) at day 21 (5° C.) (pH 6.99, 7% solution in water): 90.0 ± 0.5%
- Purity(%) at day 21 (25° C.) (pH 6.99, 7% solution in water): 77.1 ± 0.4%
- Purity(%) at day 21 (40° C.) (pH 6.99, 7% solution in water): 19.9 ± 0.4%
- Purity (%) at day 21 (60° C.) (pH 8.01, 7% solution in water): 0%
- Purity(%) at day 0 (pH 8.01, 7% solution in water): 97.6 ± 0.5%
- Purity(%) at day 21 (5° C.) (pH 8.01, 7% solution in water): 81.1 ± 0.5%
- Purity(%) at day 21 (25° C.) (pH 8.01, 7% solution in water): 52.3 ± 0.4%
- Purity(%) at day 21 (40° C.) (pH 8.01, 7% solution in water): 0%
